Results published in patent US20260096556A1, “AGRICULTURAL METHODS” (priority 2022, published 2026).

Test system: Phakopsora pachyrhizi
Test: Field trials: foliar spray on soybean plants, severity of infection from Phakopsora pachyrhizi
Type: in vivo
Conditions: for % control (% reduction of the area under the disease pressure curve): Brazil, soybean, 3 foliar applications, 75 g ai/ha
Description: Various compounds were formulated (a commercial EC250 formulation for prothioconazole, an SC100 formulation for compound X.04), diluted into a spray solution including an adjuvant, and applied to soybean plants in a foliar broadcast spray using a handheld horizontal boom sprayer. Three applications were made over the course of the growing season, starting approximately 45 days after crop emergence, with following applications at approximately 14 day intervals. Trials were conducted across five locations in Brazil.
Assessments of severity of infection from Phakopsora pachyrhizi were made at approximately weekly intervals, based on the percentage of leaf area covered by disease lesions. This is expressed in {Table B1} as a final % severity. The performance of the treatments were calculated as % reduction of the area under the disease pressure curve for the treated plots in the trial, based on assessments up to 28 days after the third application. Samples were taken from diseased leaves in the untreated plots and evaluated for the % population frequency of the F129L mutation that generates resistance to strobilurin fungicides.
Samples of leaves were taken from the untreated plots and DNA extracted from disease lesions. qPCR analysis was conducted to determine the frequency of F129L within the sampled pathogen population.

[1] = Trial A, F129L frequency in untreated 94.33%, untreated severity 97.50%
[2] = Trial B, F129L frequency in untreated 93.67%, untreated severity 83.10%
[3] = Trial C, F129L frequency in untreated 93.00%, untreated severity 96.80%
[4] = Trial D, F129L frequency in untreated 22.00%, untreated severity 74.2%
[5] = Trial E, F129L frequency in untreated 44.67%, untreated severity 95.00%

| SMILES | % control (% reduction of the area under the disease pressure curve) [1] [%] | % control (% reduction of the area under the disease pressure curve) [2] [%] | % control (% reduction of the area under the disease pressure curve) [3] [%] | % control (% reduction of the area under the disease pressure curve) [4] [%] | % control (% reduction of the area under the disease pressure curve) [5] [%] | performance compared to prothioconazole and to a commercial standard containing prothioconazole and a standard strobilurin fungicide (trials with a high (>90%) frequency of F129L in the untreated population) |
| --- | --- | --- | --- | --- | --- | --- |
| OC(Cc1ccccc1Cl)(Cn1nc[nH]c1=S)C1(Cl)CC1 (centres unmarked) [prothioconazole, reference compound] | 72.66 | 28.86 | 63.89 | 72.53 | 67.30 | – |
| CO/C=C(\Oc1cc(C2CCCCC2)ccc1C)C(=O)OC [compound X.04, methyl (Z)-2-(5-cyclohexyl-2-methyl-phenoxy)-3-methoxy-prop-2-enoate] | 91.00 | 45.50 | 95.46 | 71.39 | 63.48 | superior |
